These are literature values, as cited in patent US20020051751A1, “Pharmaceuticals and apparatus providing diagnosis and selective tissue necrosis” (priority 1985, published 2002).

For the series, the system named is DNA.

Regarding Bleomycin, the “binding constant of Bleomycin to DNA” value is 10^6. Moreover, the “Bleomycin molecules bound per nucleotides” value (results from Kd of 10^6) is reported as “one Bleomycin molecule bound per eight nucleotides”.
